{"source": "patent US20040235717A1", "about": "“Suppression of androgen receptor transactivation through new pathways to ar and ar coactivators and repressors” (priority 2001, published 2004)", "key": {"[1]": {"test_system": "LNCaP cells", "assay": "DHT/TPA-induced apoptosis in LNCaP cells, TUNEL assay", "format": "cell-based", "settings": "for LNCaP cell apoptosis, agent per se: 10 nM DHT or 1 nM TPA alone", "method": "(§1) 18. […] (A) Akt suppressed androgen/AR-induced p21 promoter activity. […] (B) Androgen/AR-induced PC-3(AR)6 apoptosis and p21 protein expression was blocked by Akt PC-3(AR)6 was transfected with pCDNA3, cAkt, or dAkt, as indicated, for 16 h. […] (C) AR-induced p21 protein expression was enhanced by dAkt in LNCaP cells. […] LNCaP stable transfection with dAkt was confirmed by western blot assay using phospho-Akt (Ser473) antibody. […] TPA was then added for another 24 h and cell apoptosis was determined by TUNEL assay. […] IGF-1 was added for another 30 min, followed by 10 nM TPA treatment for another 24 h. The apoptosis was determined by TUNEL assay. The data are means±s.d. from three independent experiments.\n(§2) 281. The TUNEL assay was performed to measure the cell apoptosis according to the standard procedures (Oncogene Research Products). At least 200 cells were scored for each sample and the data are means±s.d. from three independent experiments."}, "[2]": {"test_system": "wtAR, mtARt877a, PR, VDR, ER transactivation", "assay": "Steroid receptor transactivation with Smad3 in DU145 cells (wtAR, mtARt877a, PR, VDR, ER)", "format": "cell-based, human", "settings": "for wtAR transactivation response to ligand: DHT 10 nM, HF 1 μM, E2 10 nM"}, "[3]": {"test_system": "PC-3(AR)2, PC-3(AR)6, SAR-91 cells", "assay": "Androgen/AR-induced apoptosis, TUNEL assay in PC-3(AR)2, PC-3(AR)6 and SAR-91 cells", "format": "cell-based", "settings": "HF 5 μM, IGF-1 100 ng/ml, DHT 10 nM, 3 days", "description": "17. […] (A) PC-3(AR)2 and PC-3(AR)6 expressed AR protein. PC-3 cells were stably transfected with AR, followed by selection with hygromycin B, and confirmed by western blotting using AR antibody NH27, while LNCaP was used as a positive control. (B) Androgen/AR-induced apoptosis in PC-3(AR)2, PC-3(AR)6, and SAR-91 were inhibited by PI(3)K/Akt pathway. […] The data are means±s.d. from three independent experiments.\nas §1, §2"}, "[4]": {"test_system": "IL-6 protein expression", "assay": "IL-6 secretion by LNCaP cells (ELISA)", "format": "cell-based", "method": "11. […] IL-6 secretion in the medium was determined by ELISA. […] LNCaP cells, were serum starved for 24 h. […] PI3K activity was measured using PI as a substrate. The origin (ori) of the chromatogram and PI3-phosphate (PI3P) were indicated.\n259. […] The IL-6 protein level in the supernatants was then evaluated by BLISA."}, "[5]": {"test_system": "PSA mRNA expression", "assay": "PSA mRNA expression in LNCaP cells, Northern blot", "format": "cell-based"}, "[6]": {"test_system": "PI3K", "assay": "PI3K activity assay using phosphatidylinositol as substrate", "format": "cell-based, human", "settings": "LNCaP", "method": "(§3) 251. IL-6's effect on PI3K activity was tested. After serum starvation for 24 h, LNCaP, PC-3 or DU145 cells were treated with 50 μg/ml IL-6 for 30 minutes. The cells were then harvested. PI3K activity was measured by using phosphatidylinositol (PT) as a substrate. […] The transactivation was measured by CAT activity.\n260. […] PI3K activity was measured using PI as a substrate.\n265. PI3K activity was determined as previously described. Vlahos, C. J. et al, J. Biol. Chem. 269, 5241-5148 (1994)."}, "[7]": {"test_system": "p21 expression", "assay": "p21 promoter activity (luciferase) and p21 protein expression", "format": "cell-based", "settings": "PC-3 cells; 10 nM DHT", "method": "as §1"}, "[8]": {"test_system": "Akt / AR phosphorylation", "assay": "Akt activation and in vivo AR phosphorylation in COS-1 cells", "format": "cell-based", "method": "14. […] COS-1 cells were pretreated with ethanol or 20 μM LY294002 for 30 min, followed by treatment with 100 ng/ml IGF-1 for 30 min. The total cell lysates were immunoprecipitated by anti-Akt antibody (New England Biolabs). The immunocomplex was subjected to SDS-PAGE, followed by immunoblot with phospho-Akt (S473) antibody or Akt antibody. (B) IGF-1 phosphorylates AR in vivo via Akt. COS-1 cells were cultured in [^32P]-PO4-containing medium. AR immunocomplex was subjected to SDS-PAGE followed by autoradiography. Immunobloting confirmed equivalent amounts of AR in immunocomplex. (C) cAkt, but not dAkt, phosphorylates wtAR, but not mtAR S210A and mtAR S790A in vivo. COS-1 cells were transfected with wtAR, mtAR S210A, or mtAR S790A in combination with PCDNA3 vector, cAkt, or dAkt. After 24 h transfection, cells were labeled with [^32P]-PO4 for 4 h. (D) Suppression of AR transactivation by Akt in a dose-dependent manner. […] Transactivation was measured by CAT activity using MMTV-CAT as a reporter. (E) mtAR S210A is resistant to Akt suppressive effect on AR transactivation. DU145 cells were transfected with plasmids encoding wtAR, mtAR S210A or mtAR S790A in presence of cAkt or dAkt for 24 h. Ligand treatment and AR transactivation were performed as previously described. The data are means±s.d. from three independent experiments.\n282. […]"}, "[9]": {"test_system": "AR transactivation", "assay": "AR transactivation with TSA, MMTV-LUC in PC3-AR2 cells", "format": "cell-based"}, "[10]": {"test_system": "AR transactivation", "assay": "AR transactivation, MMTV-CAT reporter in DU145 cells transfected with AR", "format": "cell-based, human", "description": "250. To dissect the divergent effects of IL-6 in prostate tumor growth, Qui, Y. et al., Nature 393, 83-85 (1998); Hobisch, A. et al., Cancer Res. 58, 4640-4645 (1998); Ritchie, C. K. et al., Endocrinology 138, 1145-1150 (1997), the potential influences of IL-6 on the transactivation of AR, the master regulator of the prostate tumor growth were studied. Chang, C. et al., Science 240, 324.326 (1988); Chang, C. et al., Crit. Rev. Eukaryotic Gene Expression 5, 97-125 (1995). Because IL-6 has two major signal cascades, mitogen-activated protein kinase (MAPK) and phosphatidylinositol 3-kinase (PI3K), Qui, Y. et al., Nature 393, 83-85 (1998); Qui, Y. et al., Proc. Natl. Acad. Sci. USA 95, 3644-3649 (1998), inhibitors were applied to specifically block one of these two IL-6 signal pathways. DU145 cells were transfected for 24 h with AR and MMTV-CAT reporter gene. After transfection, the cells were serum starved for 24 h. Next, 20 μM LY294002, P098059 or vehicle was added to serum-free medium 30 min prior to IL-6 treatment. […] The cells were then harvested and AR transactivation was measured by CAT activity. […] Vlahos, C. J. et al., J. Biol. Chem. 269, 5241-5148 (1994). […] Alessi, D. R. et al., J. Biol. Chem. 270, 27489-27494 (1995).\nas §3\n252. Focus then turned to the two major downstream effectors of PI3K: a serine/threonine kinase (Akt/PKB) and a ribosomal S6 kinase (p70S6k). Franke, T. F. et al., Cell 88,435-437 (1997). […] The transactivation activity was determined after 24 h transfection.\n262. The DU145 and PC-3 cells were maintained in Dulbecco's Minimum Essential Medium (DMEM) containing penicillin (25 μg/m1), streptomycin (25 μg/ml), and 5% fetal calf serum (FCS). The LNCaP cells were maintained in RPMI-1640 with 10% FCS. Transfections were performed using the calcium phosphate precipitation method, as previously described. Yeh, S. et al., Proc. Natl. Acad. Sci. USA 93, 5517-5521(1996).\n277. The DU145 and PC-3 cells were maintained in Dulbecco's Minimum Essential Medium (DMEM) containing penicillin (25 U/ml), streptomycin (25 μg/ml), and 5% fetal calf serum (FCS). The LNCaP cells were maintained in RPMI-1640-10% FCS. Transfections were performed using the calcium phosphate precipitation method in PC-3 and DU145, as previously described. Yeh, S., Lin, H. K., Kang, H. Y., Thin, T. H., Lin, M. F. & Chang, C. (1999) Proc Natl Acad Sci U S A 96, 5458-63. LNCaP cells were transfected using SuperFect™ according to standard procedures (Qiagen)."}, "[11]": {"test_system": "AR protein levels", "assay": "AR protein (Western blot) and AR mRNA (Northern blot) levels", "format": "cell-based", "settings": "LNCaP, transfected"}, "[12]": {"test_system": "AR transactivation", "assay": "AR transactivation, MMTV-luc / (ARE)4-luc luciferase reporter assay", "format": "cell-based", "settings": "LNCaP MMTV-luc and CWR22 (ARE)4-luc"}}, "note": "“Also recorded” adds a separate entry of the source."}
{"compound": "CC(C)(O)C(=O)Nc1ccc([N+](=O)[O-])c(C(F)(F)F)c1", "note": "[HF, hydroxyflutamide]", "values": [{"measurement": "Effect on DHT/TPA-induced apoptosis", "setting": "[1]; LNCaP parent cells", "result": "repress this DHT/TPA-mediated apoptosis"}, {"measurement": "mtARt877a transactivation response to ligand", "setting": "[2]", "result": "responded much better"}, {"measurement": "wtAR transactivation response to ligand", "setting": "[2]", "result": "respond marginally"}, {"measurement": "Effect on androgen-induced apoptosis", "setting": "[3]", "result": "inhibition of androgen-induced apoptosis"}, {"measurement": "Effect on DHT repression of IL-6 protein expression", "setting": "[4]", "result": "reverse this induction"}, {"measurement": "Effect on Smad3-enhanced PSA induction", "setting": "[5]", "result": "partially repressed"}]}
{"compound": "C[C@]12CCC(=O)C[C@@H]1CC[C@@H]1[C@@H]2CC[C@]2(C)[C@@H](O)CC[C@@H]12", "note": "[DHT, 5α-dihydrotestosterone, reference compound]", "values": [{"measurement": "LNCaP cell apoptosis, agent per se", "setting": "[1]", "result": "only marginal effects on apoptosis"}, {"measurement": "wtAR transactivation response to ligand", "setting": "[2]", "result": "responded well"}, {"measurement": "IL-6-induced PI3K activity", "setting": "[6]; DHT and IL-6 for 30 min", "result": "repress PI3K activity significantly"}, {"measurement": "IL-6 protein expression", "setting": "[4]; 0, 1, 10 or 50 nM DHT 24 h, then 160 nM PMA 24 h", "result": "reduced by DHT in a dose-dependant manner"}, {"measurement": "PSA mRNA expression", "setting": "[5]; 10 nM DHT", "result": "induced PSA mRNA expression; also recorded: increases PSA mRNA expression"}, {"measurement": "p21 promoter activity", "setting": "[7]", "result": "induce p21 promoter activity"}]}
{"compound": "CCCCCCCCCCCCCC(=O)O[C@@H]1[C@@H](C)[C@@]2(O)[C@@H](C=C(CO)C[C@]3(O)C(=O)C(C)=C[C@@H]23)[C@H]2C(C)(C)[C@]12OC(C)=O", "note": "[TPA, 12-0-tetradecanoyl phorbol-13-acetate]", "values": [{"measurement": "LNCaP cell apoptosis, agent per se", "setting": "[1]", "result": "only marginal effects on apoptosis"}]}
{"compound": "IGF-1: insulin-like growth factor-1", "values": [{"measurement": "Akt activation (phospho-Akt S473)", "setting": "[8]; 100 ng/ml IGF-1 30 min", "result": "Activation of Akt"}, {"measurement": "AR phosphorylation in vivo", "setting": "[8]; [32P] labeling", "result": "strongly induced AR phosphorylation"}, {"measurement": "Effect on DHT/TPA-induced apoptosis", "setting": "[1]; LNCaP cells stably transfected with dAkt", "result": "only marginal suppressive effects"}, {"measurement": "Effect on DHT/TPA-induced apoptosis", "setting": "[1]; LNCaP parent cells", "result": "partially repressed DHT/TPA-induced apoptosis"}, {"measurement": "Effect on androgen-induced apoptosis", "setting": "[3]", "result": "repress androgen-induced apoptosis"}]}
{"compound": "CCCC(=O)[O-].[Na+]", "note": "[NaB]", "values": [{"measurement": "Effect on Smad3/Smad4-suppressed AR transactivation", "setting": "[9]", "result": "reverse Smad3/Smad4-repressed AR transactivation"}]}
{"compound": "IL-6: a pleiotropic cytokine", "values": [{"measurement": "PI3K activity", "setting": "[6]; PC-3, DU145 cells, 50 μg/ml IL-6 for 30 min", "result": "increase PI3K activity"}, {"measurement": "Effect of IL-6 on AR transactivation (CAT activity)", "setting": "[10]; MAPK pathway inhibited by 20 μM P098059 30 min prior to IL-6", "result": "repress AR transactivation"}, {"measurement": "Effect of IL-6 on AR transactivation (CAT activity)", "setting": "[10]; PI3K pathway inhibited by 20 μM LY294002 30 min prior to IL-6", "result": "enhance AR transactivation"}, {"measurement": "Effect of IL-6 on AR transactivation (CAT activity)", "setting": "[10]; none of the MAPK and PI3K pathways blocked, DHT 24 h", "result": "very limited effect"}]}
{"compound": "PTEN-PTP: PTEN peptide (aa, 110-163) containing the phosphatase domain (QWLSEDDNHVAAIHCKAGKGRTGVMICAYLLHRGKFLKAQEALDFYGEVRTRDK; left off: a dimerising Fc or GST)", "values": [{"measurement": "AR degradation", "setting": "[11]", "result": "promote AR degradation"}, {"measurement": "Effect on AR transactivation", "setting": "[12]", "result": "suppress of AR transactivation"}]}
